From paper PMC5531494, “Target specificity, in vivo pharmacokinetics, and efficacy of the putative STAT3 inhibitor LY5 in osteosarcoma, Ewing's sarcoma, and rhabdomyosarcoma” (PLoS ONE, 2017)

Experiments:
[1] = system: RH30, ES-3, ES-7, EW-8 cells; assay: Combined STAT3 knockdown-LY5 cell viability assay (Alamar Blue); assay type: cell-based, human; details: NC siRNA or STAT3 siRNA 48 hrs, then 0.5 μM or 1 μM LY5 48 hrs
Procedure: Cell lines were transfected with 10 nM of AllStars negative control siRNA or human STAT3-targeting siRNA #7 (5’-[…]-3’) (Qiagen, Germantown, MD) using Lipofectamine RNAiMAX (Life Technologies, Carlsbad, CA) according to the manufacturer’s instructions. After 72 hrs of transfection, cells were harvested and lysed for immunoblotting. For the combined STAT3 knockdown–LY5 cell viability assay, negative control siRNA or STAT3 siRNA #7 was transfected into cell lines. After 48 hrs, cells were treated with 0.5 μM or 1 μM of LY5 for another 48 hrs. Cell viability was then analyzed using Alamar Blue as described above.
Fig 6 Effects of LY5 are not mediated via STAT3 inhibition. (A) Antitumor activity of LY5 against OS-1 PDX model of OS. […] After 72 hours of transfection, cells were harvested and analyzed for total (T) STAT3 and GAPDH protein expression by immunoblotting. […] Cell viability was then determined using Alamar Blue staining. […]
(A) ES cell line ES-3 was transfected with either negative control siRNA (NC siRNA) or STAT3-targeting siRNA #7. After 72 hrs of transfection, cells were harvested and analyzed for total (T) STAT3 and GAPDH protein expression by immunoblotting. […] Cell viability was evaluated using Alamar Blue staining. […]

STAT3 [2] = target: T1, STAT3 (Homo sapiens, UniProt P40763); assay: Western blot of pSTAT3 in MG63.3 cells; assay type: cell-based; parameters: endogenous in cells; host or cells: MG63.3
Procedure: Murine K7M2 and human MG63.3 OS cells were treated with increasing concentrations of LY5 for 2 hrs or 7 hrs. Western blotting was performed for pSTAT3 and STAT3 as indicated above to confirm inhibition of STAT3 phosphorylation in the cell lines prior to initiation of the PuMA assay. In addition, a sulforhodamine B colorimetric assay was performed to assess the cytotoxicity of LY5 in K7M2 and MG63.3 cells as previously described.
MG63.3 and K7M2 cell lines were exposed to increasing concentrations of LY5 to determine the IC50 (A). Western blot analysis was performed to determine the dose and duration of LY5 exposure required to inhibit STAT3 phosphorylation (B-C). Serial imaging of fluorescently labeled MG63.3 and K7M2 cells was performed in ex vivo LY5 treated lung sections (D). Metastatic burden was quantified by evaluation of the percent tumor burden (mean normalized fluorescent area). Data are reported as the mean ± standard deviation. In MG 63.3 experiment, p < 0.0001 Kruskal-Wallis test, p < 0.05 10 μM vs control at days 7, 14, and 21, 10 μM vs 1 μM at days 7, 14, and 21, 50 μM vs control at days 7, 14, and 21, and 50 μM vs 10 μM at days 7, 14, and 21 post-test Dunn. In K7M2 experiment, p < 0.0001 Kruskal-Wallis test, p < 0.05 10 μM vs control at days 14 and 21, 10 μM vs 0.1 μM at days 14 and 21, and 10 μM vs 1 μM at days 14 and 21, post-test Dunn.

STAT3 [3] = target: T1, STAT3; assay: pSTAT3 in pulmonary metastatic lesions, IHC and Western blotting; assay type: in vivo, mice; parameters: from tissue; host or cells: OS-17-luc lung metastases and OS-1 subcutaneous PDX tumours in C.B-17 scid mice; details: 20 mg/kg LY5 daily for 30 days; immunohistochemistry and Western blotting
Procedure: The ability of LY5 to inhibit pulmonary metastases was evaluated using a murine model of OS pulmonary metastasis. 8-week-old C.B-17 scid -/- female mice (Envigo, Madison, WI) received IV inoculation with 10^6 OS-17-luc cells expressing a luciferase reporter gene. OS-17-luc cells were generated by infecting OS-17 wild type cells with lentivirus containing the firefly luciferase under a CMV promoter (Cellomics Technology, Hallethorpe, MD) and selected with 0.5 ug/mL puromycin (Thermo Fisher Scientific, Waltham, MA). Beginning 24 hrs after inoculation, mice received vehicle (n = 10) or 20 mg/kg LY5 once daily via oral gavage (n = 9, one mouse died within 24 hrs after cell inoculation). LY5 was prepared by diluting a 40 mg/mL solution/slurry with a 50% propylene glycol/1% Tween 20 in water vehicle immediately before administration. Mice were treated with LY5 for 30 days, and bioluminescent imaging (after IP luciferin administration) was performed to determine pulmonary metastatic disease load. To investigate the pharmacodynamics (PD) effects of LY5, pSTAT3 (p-Tyr705, ab76315, Abcam) and total STAT3 (ab119352, Abcam) were evaluated in pulmonary metastatic lesions using IHC in lung samples from mice euthanized 24 hrs after their last dose.
(A-B) IHC staining of lung metastasis from mice treated with LY5. The metastatic tumor sections were stained with pSTAT3 or hematoxylin and eosin. […]

T1 sequence (P40763 whole entry): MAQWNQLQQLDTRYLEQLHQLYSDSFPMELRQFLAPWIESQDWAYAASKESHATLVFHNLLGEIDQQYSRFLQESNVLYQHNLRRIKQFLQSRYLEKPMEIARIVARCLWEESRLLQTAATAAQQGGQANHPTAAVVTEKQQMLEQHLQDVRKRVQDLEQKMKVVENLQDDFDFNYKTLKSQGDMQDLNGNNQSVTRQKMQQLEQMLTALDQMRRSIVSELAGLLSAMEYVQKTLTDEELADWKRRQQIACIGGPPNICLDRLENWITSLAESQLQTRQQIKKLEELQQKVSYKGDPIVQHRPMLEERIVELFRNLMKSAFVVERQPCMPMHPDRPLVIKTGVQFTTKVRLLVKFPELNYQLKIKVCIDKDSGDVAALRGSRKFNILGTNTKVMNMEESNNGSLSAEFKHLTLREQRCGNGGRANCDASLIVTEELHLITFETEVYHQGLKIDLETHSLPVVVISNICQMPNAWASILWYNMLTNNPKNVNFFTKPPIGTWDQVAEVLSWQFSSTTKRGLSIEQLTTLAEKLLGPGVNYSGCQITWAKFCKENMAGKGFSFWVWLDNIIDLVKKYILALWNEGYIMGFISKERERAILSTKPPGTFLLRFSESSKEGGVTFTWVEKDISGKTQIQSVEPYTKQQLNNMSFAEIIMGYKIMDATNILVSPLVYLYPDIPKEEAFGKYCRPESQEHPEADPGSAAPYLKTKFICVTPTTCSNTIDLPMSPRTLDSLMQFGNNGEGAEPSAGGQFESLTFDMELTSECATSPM

NS(=O)(=O)c1cccc2c1C(=O)C=C(Nc1cccnc1)C2=O [LY5, 5,8-dioxo-6-(pyridin-3-ylamino)-5,8-dihydronaphthalene-1-sulfonamide]
response to LY5 (cell viability) with or without STAT3 depletion [1]: comparable
exposure time for effective inhibition of STAT3 phosphorylation (STAT3 [2]; MG 63.3, 1 μM LY5): 0.5 h
concentration that decreased STAT3 phosphorylation (STAT3 [2]; MG63.3, 2 hrs treatment): 1 µM
STAT3 phosphorylation in pulmonary metastatic lesions (STAT3 [3]): inhibited STAT3 phosphorylation
